# Earlier results as cited in patent publication US8691514B2, “Method for selective control of helper T cell function” (Japan Science and Technology Agency, priority 2008, dated 2014).
# Assays:
# [1] = test system: CD8 positive T cell; settings: treated with GlcCer synthetase inhibitor; Nagafuku et al. 2003, Blank et al. 2005
# [2] = test system: CD4 positive T cell; settings: treated with GlcCer synthetase inhibitor; Nagafuku et al. 2003, Blank et al. 2005
compound,measurement,setting,value
"CCCCCCCCCC(=O)N[C@H](CN1CCOCC1)[C@H](O)c1ccccc1.Cl [D-PDMP, D-threo-1-phenyl-2-decanoylamiono-3-morpholino-1-prppanol.HCl]",function of the CD8 positive T cell,[1],suppressed
same,function of the CD4 positive T cell,[2],suppressed
